According to patent publication US20110301200A1, “THYROID RECEPTOR LIGANDS” (CADILA HEALTHCARE LIMITED, priority 2008, published 2011):

Experiments:
TR-α = target: T1, TR-α (Homo sapiens, UniProt P10827); test: In vitro TR-α activity (in-house protocol); type: cell-based; settings: for fold induction at 0.001 µM: Conc. 1 nM; for fold induction at 0.001 µM / fold induction at 0.01 µM / fold induction at 0.1 µM / fold induction at 1 µM: read-out: TR-α Fold Induction w.r.t T3(100 nm); for fold induction at 0.01 µM: Conc. 10 nM; for fold induction at 0.1 µM: Conc. 100 nM; for fold induction at 1 µM: Conc. 1000 nM
T1 sequence (P10827 1-410 isoform P10827-2): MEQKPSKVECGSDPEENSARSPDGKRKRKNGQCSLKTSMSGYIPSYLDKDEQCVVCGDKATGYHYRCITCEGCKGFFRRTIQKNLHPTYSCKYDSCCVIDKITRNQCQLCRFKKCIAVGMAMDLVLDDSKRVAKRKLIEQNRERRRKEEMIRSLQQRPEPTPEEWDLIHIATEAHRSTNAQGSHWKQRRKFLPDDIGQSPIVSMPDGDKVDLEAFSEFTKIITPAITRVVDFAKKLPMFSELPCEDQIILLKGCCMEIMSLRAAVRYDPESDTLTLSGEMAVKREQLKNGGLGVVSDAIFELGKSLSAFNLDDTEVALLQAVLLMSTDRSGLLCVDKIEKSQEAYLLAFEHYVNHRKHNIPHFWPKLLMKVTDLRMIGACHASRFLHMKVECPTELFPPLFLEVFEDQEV
Protocol: (§1) In vitro TR-α & TR-β activities were determined as per in-house protocols and the results of representative compounds are provided in tables 1 & 2 below as a proof of the efficacies of the novel class of compounds disclosed above.

TR-β = target: T2, TR-β (Homo sapiens, UniProt P10828); test: In vitro TR-β activity (in-house protocol); type: cell-based; settings: for fold induction at 0.001 µM: Conc. 1 nM; for fold induction at 0.001 µM / fold induction at 0.01 µM / fold induction at 0.1 µM / fold induction at 1 µM: read-out: TR-β Fold Induction w.r.t T3(100 nm); for fold induction at 0.01 µM: Conc. 10 nM; for fold induction at 0.1 µM: Conc. 100 nM; for fold induction at 1 µM: Conc. 1000 nM
T2 sequence (P10828 1-461): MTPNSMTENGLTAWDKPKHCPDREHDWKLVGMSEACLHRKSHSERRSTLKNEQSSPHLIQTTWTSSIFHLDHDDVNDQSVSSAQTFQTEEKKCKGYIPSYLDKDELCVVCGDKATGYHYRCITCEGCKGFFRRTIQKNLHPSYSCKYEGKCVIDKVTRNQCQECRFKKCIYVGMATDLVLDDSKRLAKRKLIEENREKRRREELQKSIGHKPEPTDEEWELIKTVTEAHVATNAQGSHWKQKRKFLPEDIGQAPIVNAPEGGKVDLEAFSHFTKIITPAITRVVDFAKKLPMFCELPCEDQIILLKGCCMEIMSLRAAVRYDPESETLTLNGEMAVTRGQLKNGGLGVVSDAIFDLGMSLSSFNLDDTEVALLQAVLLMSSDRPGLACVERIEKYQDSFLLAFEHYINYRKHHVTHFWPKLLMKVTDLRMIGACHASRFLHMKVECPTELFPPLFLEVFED
Protocol: as §1

SMILES | fold induction at 0.001 µM (TR-α) | fold induction at 0.01 µM (TR-α) | fold induction at 0.1 µM (TR-α) | fold induction at 1 µM (TR-α) | fold induction at 0.001 µM (TR-β) | fold induction at 0.01 µM (TR-β) | fold induction at 0.1 µM (TR-β) | fold induction at 1 µM (TR-β) | EC50 (TR-α) [nM] | EC50 (TR-β) [nM]
CCC(ON=Cc1cc(Br)c(Oc2ccc(O)c(-c3ccccc3)c2)c(Br)c1)C(=O)O (centres unmarked) [Example 21, 2-(((3,5-dibromo-4-((6-hydroxy-[1,1′-biphenyl]-3-yl)oxy)benzylidene)amino)oxy)butanoic acid] | 12.8 | 16.6 | 50.4 | 105 | 12.9 | 18.2 | 51.6 | 63.8 |  | 
CC(C)(ON=Cc1cc(Br)c(Oc2ccc(O)c(Cc3ccccc3)c2)c(Br)c1)C(=O)O [Example 22, 2-(((4-(3-benzyl-4-hydroxyphenoxy)-3,5-dibromobenzylidene)amino)oxy)-2-methylpropanoic acid] | 12.1 | 27.2 | 48.6 | 85.1 | 9.09 | 24.9 | 44.9 | 73.9 |  | 
CCC(C)c1cc(Oc2c(Cl)cc(C=NOC(C)C(=O)O)cc2Cl)ccc1O (centres unmarked) [Example 23, 2-(((4-(3-(sec-butyl)-4-hydroxyphenoxy)-3,5-dichlorobenzylidene)amino)oxy)propanoic acid] | 22.6 | 48.2 | 92.2 | 138 | 19.2 | 53.1 | 78.9 | 90 |  | 
CC(ON=Cc1cc(Br)c(Oc2ccc(O)c(C(C)(C)C)c2)c(Br)c1)C(=O)O (centres unmarked) [Example 24, 2-(((3,5-dibromo-4-(3-(tert-butyl)-4-hydroxyphenoxy)benzylidene)amino)oxy)propanoic acid] | 18.5 | 52.1 | 102 | 121 | 16.6 | 48.9 | 105 | 86.1 |  | 
CCc1cc(Oc2c(Br)cc(C=NOC(C)C(=O)O)cc2Br)ccc1O (centres unmarked) [Example 25, 2-(((3,5-dibromo-4-(3-ethyl-4-hydroxyphenoxy)benzylidene)amino)oxy)propanoic acid] | 13.8 | 28.5 | 79 | 134 | 11.5 | 37.1 | 59.9 | 86.7 |  | 
CC(ON=Cc1cc(Br)c(Oc2ccc(O)c(C(=O)c3ccc(Cl)cc3)c2)c(Br)c1)C(=O)O (centres unmarked) [Example 26, 2-(((3,5-dibromo-4-(3-(4-chlorobenzoyl)-4-hydroxyphenoxy)benzylidene)amino)oxy)propanoic acid] | 12.1 | 13.9 | 34.9 | 64.5 | 9.62 | 13.2 | 41.2 | 76.2 |  | 
CC(ON=Cc1cc(Br)c(Oc2ccc(O)c(C(O)c3ccc(Cl)cc3)c2)c(Br)c1)C(=O)O (centres unmarked) [Example 27, 2-(((3,5-dibromo-4-(3-((4-chlorophenyl)(hydroxy)methyl)-4-hydroxyphenoxy)benzylidene)amino)oxy)propanoic acid] | 13.2 | 14.4 | 45.2 | 76.4 | 10.1 | 16.4 | 29.1 | 107 |  | 
O=C(O)CON=Cc1cc(Br)c(Oc2ccc(O)c(C(=O)c3ccc(Cl)cc3)c2)c(Br)c1 [Example 28, 2-(((3,5-dibromo-4-(3-(4-chlorobenzoyl)-4-hydroxyphenoxy)benzylidene)amino)oxy)acetic acid] | 16.2 | 25 | 40.4 | 54.5 | 10.2 | 26.4 | 61.7 | 58.9 |  | 
O=C(O)CON=Cc1cc(Br)c(Oc2ccc(O)c(C(O)c3ccc(Cl)cc3)c2)c(Br)c1 (centres unmarked) [Example 29, 2-(((3,5-dibromo-4-(3-((4-chlorophenyl)(hydroxy)methyl)-4-hydroxyphenoxy)benzylidene)amino)oxy)acetic acid] | 17.6 | 21.2 | 29.9 | 64.2 | 10.6 | 12.1 | 33.5 | 68.5 |  | 
CC(ON=Cc1cc(Br)c(Oc2ccc(O)c(C(=O)c3cccc(Cl)c3)c2)c(Br)c1)C(=O)O (centres unmarked) [Example 30, 2-(((3,5-dibromo-4-(3-(3-chlorobenzoyl)-4-hydroxyphenoxy)benzylidene)amino)oxy)propanoic acid] |  |  |  |  |  |  |  |  | 143 | 166
O=C(O)CON=Cc1cc(Br)c(Oc2ccc(O)c(C(=O)c3ccc(Br)cc3)c2)c(Br)c1 [Example 31, 2-(((3,5-dibromo-4-(3-(4-bromobenzoyl)-4-hydroxyphenoxy)benzylidene)amino)oxy)acetic acid] | 13.7 | 17.2 | 38.3 | 39.2 | 11.8 | 14.3 | 41.5 | 50.3 |  | 
O=C(O)CON=Cc1cc(Br)c(Oc2ccc(O)c(C(O)c3ccc(Br)cc3)c2)c(Br)c1 (centres unmarked) [Example 32, 2-(((3,5-dibromo-4-(3-((4-bromophenyl)(hydroxy)methyl)-4-hydroxyphenoxy)benzylidene)amino)oxy)acetic acid] | 20.4 | 16.8 | 22.8 | 69.8 | 11.8 | 12.9 | 14.5 | 65 |  | 
O=C(O)CON=Cc1cc(Br)c(Oc2ccc(O)c(C(=O)c3cccc(Cl)c3)c2)c(Br)c1 [Example 33, 2-(((3,5-dibromo-4-(3-(3-chlorobenzoyl)-4-hydroxyphenoxy)benzylidene)amino)oxy)acetic acid] | 18.7 | 32.2 | 52.1 | 74 | 14 | 30.1 | 72.5 | 62.1 |  | 
CC(ON=Cc1cc(Br)c(Oc2ccc(O)c(C(O)c3cccc(Cl)c3)c2)c(Br)c1)C(=O)O (centres unmarked) [Example 34, 2-(((3,5-dibromo-4-(3-((3-chlorophenyl)(hydroxy)methyl)-4-hydroxyphenoxy)benzylidene)amino)oxy)propanoic acid] | 14.1 | 11.8 | 17.9 | 39.8 | 10.9 | 9.74 | 21.4 | 47.5 |  | 
O=C(O)CON=Cc1cc(Br)c(Oc2ccc(O)c(C(O)c3cccc(Cl)c3)c2)c(Br)c1 (centres unmarked) [Example 35, 2-(((3,5-dibromo-4-(3-((3-chlorophenyl)(hydroxy)methyl)-4-hydroxyphenoxy)benzylidene)amino)oxy)acetic acid] |  |  |  |  |  |  |  |  | 2100 | 4900
CC(ON=Cc1cc(Br)c(Oc2ccc(O)c(S(=O)(=O)N3CCCCC3)c2)c(Br)c1)C(=O)O (centres unmarked) [Example 36, 2-(((3,5-dibromo-4-(4-hydroxy-3-(piperidin-1-ylsulfonyl)phenoxy)benzylidene)amino)oxy)propanoic acid] | 14.1 | 15.4 | 57.8 | 128 | 11 | 19.7 | 58.2 | 107 |  | 
